Data: patent US4638047A, “Enzyme inhibition” (priority 1983, dated 1987)
Read-outs that look alike come from different tables or passages of the source. Residues, ends and D or L forms follow the SMILES beside them.

Legend:
human thrombin = biological target: T1, human thrombin (Homo sapiens, UniProt P00734); experiment: Inhibition of human thrombin hydrolysing the chromogenic substrate S-2238 (Ki by Dixon plot); assay type: biochemical
T1 construct: forms a lipoprotein complex with prothrombin (factor II) and cleaves it to form thrombin (factor IIa) itself
Description: (a) Inhibition of human thrombin hydrolysing the chromogenic substrate S-2238 (for details of the method, see M. F. Scully and V. V. Kakkar, Clin. Chim. Acta 1977.79.595). Series of measurements were carried out using a number of different inhibitor concentrations and at least two different substrate concentrations. The inhibitory constant Ki was determined graphically, using a Dixon plot (M. Dixon, Biochem. J. 1953.55.170)

[1] = In vivo half life in plasma
Description: (§1) These tests were carried out in rabbits, using between 0.1-4 mg/Kg of the inhibitor and comparing the KCCT or the thrombin clotting time in blood samples taken before and at various time intervals after the administration of inhibitors.

[2] = rabbit
Description: as §1

Compound	Ki (human thrombin)	in vivo half life in plasma [1]	in vivo half life in plasma [2]
CC(C)(C)OC(=O)N[C@H](Cc1ccccc1)C(=O)N1CCC[C@H]1C(=O)N[C@@H](CCCNC(=N)N)CNCC(=O)N1CCC[C@H]1C(=O)O [Example H-172]	112 µM	–	–
CCNC(=O)[C@@H]1CCCN1C(=O)CCC(=O)[C@H](CCCNC(=N)N)NC(=O)[C@@H]1CCCN1C(=O)[C@H](N)Cc1ccccc1 [Example H-179]	6 µM	–	18 min

Next, values leading:

Ki (human thrombin)	in vivo half life in plasma [1]	in vivo half life in plasma [2]	Compound
3 µM	–	–	CCNC(=O)[C@@H](NC(=O)[C@H](CCCNC(=N)N)NC(=O)[C@@H]1CCCN1C(=O)CCC(=O)[C@H](CCCNC(=N)N)NC(=O)[C@@H]1CCCN1C(=O)[C@H](N)Cc1ccccc1)C(C)C [Example H-200] (HELM PEPTIDE1{[dF].P.[N=C(N)NCCC[C@H](N[*:1])C(=O)CCC(=O)[*:2]].P.R.V.[CCN[*:1]]}$$$$V2.0)
–	15 min	–	heparin
68 µM	–	–	CCNC(=O)[C@@H]1CCCN1C(=O)CCC(=O)[C@@H](CCCNC(=N)N)NC(=O)[C@@H]1CCCN1C(=O)[C@@H](Cc1ccccc1)NC(=O)OC(C)(C)C [Example H-170]
